Results reported in patent US12414569B2 (priority 2019, dated 2025).

Conditions: Citrus sinensis

Question: With `Cc1nnc(C)s1` [2,5-Dimethyl-1,3,4-thiadiazole] as the compound, how does the “Distance Traveled” value read?
Answer: The value was 14 cm.

Question: Which “Distance Traveled” value does the source give for `O=CC=Cc1ccccc1` [Cinnamaldehyde] here?
Answer: Its value is 12 cm.

Question: With `C=CCSSSCC=C` [Diallyl Trisulfide] as the compound, how does the “Distance Traveled” value read?
Answer: Its value is 26 cm.

Question: With `C=CCSSCC=C` [Diallyl disulfide] as the compound, how does the “Distance Traveled” value read?
Answer: Its value is 24 cm.
